Assays:
[1] = system: ceDNA-luciferase (ceDNA-luc); assay: In vivo ceDNA-luc expression by IVIS imaging after IV dosing of LNPs; set-up: species or system CD-1 mice; conditions: for luciferase expression and/or activity, rank among lipids tested: Studies A and B; for luciferase expressions and/or activity compared to positive control SS-OP ceDNA LNPs: Study A, vs LNPs 1, 2 and 7-12 (SS-OP), FIG. 1; for luciferase expressions and/or activity compared to positive control SS-OP ceDNA LNPs / luciferase activity compared to positive control SS-OP ceDNA LNP / luciferase expression and/or activity compared to positive control SS-OP ceDNA LNP / luciferase expressions and/or activity compared to SS-OP LNP: Day 4; for luciferase expressions and/or activity compared to positive control SS-OP ceDNA LNPs / luciferase activity compared to positive control SS-OP ceDNA LNP: 0.25 mg/kg IV once on Day 0; for luciferase activity compared to positive control SS-OP ceDNA LNP: Study B, vs LNP 13 (SS-OP), FIG. 2; for luciferase expression and/or activity compared to positive control SS-OP ceDNA LNP: Study C, at both 25 mg/kg and 1 mg/kg, vs LNP 19 (SS-OP), FIG. 3; for luciferase expressions and/or activity compared to SS-OP LNP: 0.25 mg/kg IV
Method: Lipid nanoparticles (LNP) were prepared at a total lipid to ceDNA weight ratio of approximately 10:1 to 30:1. Briefly, an ionizable lipid of the present invention, a non-cationic lipid (e.g., distearoylphosphatidylcholine (DSPC)), a component to provide membrane integrity (such as a sterol, e.g., cholesterol) and a conjugated lipid molecule (such as a PEG-lipid, e.g., 1-(monomethoxy-polyethyleneglycol)-2,3-dimyristoylglycerol, with an average PEG molecular weight of 2000 (“PEG-DMG”)), were solubilized in alcohol (e.g., ethanol) at a molar ratio of, for example, 50:10:37:3 or 20:40:38:2. The ceDNA was diluted to a desired concentration in buffer solution. For example, the ceDNA were diluted to a concentration of 0.1 mg/ml to 0.25 mg/ml in a buffer solution comprising sodium acetate, sodium acetate and magnesium chloride, citrate, malic acid, or malic acid and sodium chloride. In one example, the ceDNA was diluted to 0.2 mg/mL in 10 to 50 mM citrate buffer, pH 4. The alcoholic lipid solution was mixed with ceDNA aqueous solution using, for example, syringe pumps or an impinging jet mixer, at a ratio of about 1:5 to 1:3 (vol/vol) with total flow rates above 10 ml/min. In one example, the alcoholic lipid solution was mixed with ceDNA aqueous at a ratio of about 1:3 (vol/vol) with a flow rate of 12 ml/min. The alcohol was removed, and the buffer was replaced with PBS by dialysis. Alternatively, the buffers were replaced with PBS using centrifugal tubes. Alcohol removal and simultaneous buffer exchange were accomplished by, for example, dialysis or tangential flow filtration. The obtained lipid nanoparticles are filtered through a 0.2 µm pore sterile filter.
In one study, lipid nanoparticles comprising exemplary ceDNAs were prepared using a lipid solution comprising SS-OP, DSPC, Cholesterol and DMG-PEG2000 (mol ratio 50:10:37:3) as control. In some examples, a tissue target moiety like N-Acetylgalactosamine (GalNAc) was included. A GalNAc moiety such as tri-antennary GalNAc (GalNAc3) or tetra-antennary GalNAc (GalNAc4) can be synthesized as known in the art (see, WO2017/084987 and WO2013/166121) and chemically conjugated to lipid or PEG as well-known in the art (see, Resen et al., J. Biol. Chem. (2001) “Determination of the Upper Size Limit for Uptake and Processing of Ligands by the Asialoglycoprotein Receptor on Hepatocytes in Vitro and in Vivo” […]). Aqueous solutions of ceDNA in buffered solutions were prepared. The lipid solution and the ceDNA solution were mixed using an in-house procedure on a NanoAssembler at a total flow rate of 12 mL/min at a lipid to ceDNA ratio of 1:3 (v/v).
(§1) Species (number, sex, age): CD-1 mice (N=65 and 5 spare, male, about 4 weeks of age at arrival).
(§2) Dose Administration: Test articles (LNPs: ceDNA-Luc) were dosed at 5 mL/kg on Day 0 for Groups 1-38 by intravenous administration to lateral tail vein.
• Luciferin stock powder was stored at nominally −20° C. • Stored formulated luciferin in 1 mL aliquots at 2-8° C. protect from light. • Formulated luciferin was stable for up to 3 weeks at 2-8° C., protected from light and stable for about 12 hrs at room temperature (RT). • Dissolved luciferin in PBS to a target concentration of 60 mg/mL at a sufficient volume and adjusted to pH=7.4 with 5-M NaOH (about 0.5 μl/mg luciferin) and HCl (about 0.5 μL/mg luciferin) as needed. • Prepared the appropriate amount according to protocol including at least a about 50% overage. […]

[2] = Tolerability in mice as measured by change in body weight; format: in vivo; conditions: body weight at Day 1, 0.25 mg/kg IV
Method: as §1
Clinical Observations: Clinical observations were performed about 1, about 5 to about 6 and about 24 hours post the Day 0 Test Material dose. Additional observations were made per exception. Body weights for all animals, as applicable, were recorded on Days 0, 1, 2, 3, 4 & 7 (prior to euthanasia). Additional body weights were recorded as needed.
as §2

[3] = Study D, vs LNP 23 (SS-OP), FIG. 4A
[4] = Study D, control Ionizable Lipid A (LNP 22), FIG. 4B
[5] = Study E, vs LNP 27 (SS-OP), FIG. 5A
[6] = Study E, outlier data point in LNP 30 excepted, FIG. 5B

Row | SMILES | luciferase expressions and/or activity compared to positive control SS-OP ceDNA LNPs [1] | luciferase activity compared to positive control SS-OP ceDNA LNP [1] | luciferase expressions and/or activity compared to SS-OP LNP [1, 3] | tolerability (change in body weight) [2, 4] | luciferase expressions and/or activity compared to SS-OP LNP [1, 5] | tolerability (change in body weight) [2, 6] | other results
1 | CCCCCCCC/C=C\CCCCCCCC(=O)Oc1ccc(CC(=O)OCCC2CCN(CCSSCCN3CCC(CCOC(=O)Cc4ccc(OC(=O)CCCCCCCC(=O)OC(CCCCCCCC)CCCCCCCC)cc4)CC3)CC2)cc1 [Lipid 1, 1-(heptadecan-9-yl) 9-(4-(2-(2-(1-(2-((2-(4-(2-(2-(4-(oleoyloxy)phenyl)acetoxy)ethyl)piperidin-1-yl)ethyl)disulfaneyl)ethyl)piperidin-4-yl)ethoxy)-2-oxoethyl)phenyl) nonanedioate] | equivalent or higher | equivalent or higher | – | – | – | – | luciferase expression and/or activity, rank among lipids tested [1]: highest; luciferase expression and/or activity compared to positive control SS-OP ceDNA LNP [1]: higher
2 | CCCCCCCCCOC(=O)CCCC(=O)Oc1ccc(CC(=O)OCCC2CCN(CCSSCCN3CCC(CCOC(=O)Cc4ccc(OC(=O)CCCCCCCC(=O)OC(CCCCCCCC)CCCCCCCC)cc4)CC3)CC2)cc1 [Lipid 2, 1-(heptadecan-9-yl) 9-(4-(2-(2-(1-(2-((2-(4-(2-(2-(4-((5-(nonyloxy)-5-oxopentanoyl)oxy)phenyl)acetoxy)ethyl)piperidin-1-yl)ethyl)disulfaneyl)ethyl)piperidin-4-yl)ethoxy)-2-oxoethyl)phenyl) nonanedioate] | equivalent or higher | equivalent or higher | – | – | – | – | –
3 | CCCCCCCCCOC(=O)CCCCCCCC(=O)Oc1ccc(CC(=O)OCCC2CCN(CCSSCCN3CCC(CCOC(=O)Cc4ccc(OC(=O)CCCCCCCC(=O)OC(CCCCCCCC)CCCCCCCC)cc4)CC3)CC2)cc1 [Lipid 3, 1-(heptadecan-9-yl) 9-(4-(2-(2-(1-(2-((2-(4-(2-(2-(4-((9-(nonyloxy)-9-oxononanoyl)oxy)phenyl)acetoxy)ethyl)piperidin-1-yl)ethyl)disulfaneyl)ethyl)piperidin-4-yl)ethoxy)-2-oxoethyl)phenyl) nonanedioate] | equivalent or higher | equivalent or higher | – | – | – | – | luciferase expression and/or activity, rank among lipids tested [1]: highest; luciferase expression and/or activity compared to positive control SS-OP ceDNA LNP [1]: higher
4 | CCCCCCCCC(CCCCCCCC)OC(=O)CCCCCCCC(=O)Oc1ccc(CC(=O)OCCC2CCN(CCSSCCN3CCC(CCOC(=O)Cc4ccc(OC(=O)CCCCCCCC(=O)OC(CCCCCCCC)CCCCCCCC)cc4)CC3)CC2)cc1 [Lipid 5, O′1,O1-((((((disulfanediylbis(ethane-2,1-diyl))bis(piperidine-1,4-diyl))bis(ethane-2,1-diyl))bis(oxy))bis(2-oxoethane-2,1-diyl))bis(4,1-phenylene)) 9,9′-di(heptadecan-9-yl) di(nonanedioate)] | equivalent or higher | equivalent or higher | – | – | – | – | –
5 | CCCCCCCC/C=C\CCCCCCCC(=O)Oc1ccc(CC(=O)OCCC2CCN(CCSSCCN3CCC(CCOC(=O)Cc4ccc(OC(=O)CCCCCCCC(=O)OC(CC)CCCCCCCC)cc4)CC3)CC2)cc1 (stereo not drawn) [Lipid 6, 1-(4-(2-(2-(1-(2-((2-(4-(2-(2-(4-(oleoyloxy)phenyl)acetoxy)ethyl)piperidin-1-yl)ethyl)disulfaneyl)ethyl)piperidin-4-yl)ethoxy)-2-oxoethyl)phenyl) 9-(undecan-3-yl) nonanedioate] | – | – | equivalent or higher | did not cause changes in body weight | – | – | –
6 | CCCCCCCC/C=C\CCCCCCCC(=O)Oc1ccc(CC(=O)OCCC2CCN(CCSSCCN3CCC(CCOC(=O)Cc4ccc(OC(=O)CCCCCCCC(=O)OC(CCCC)CCCCCCCC)cc4)CC3)CC2)cc1 (stereo not drawn) [Lipid 7, 1-(4-(2-(2-(1-(2-((2-(4-(2-(2-(4-(oleoyloxy)phenyl)acetoxy)ethyl)piperidin-1-yl)ethyl)disulfaneyl)ethyl)piperidin-4-yl)ethoxy)-2-oxoethyl)phenyl) 9-(tridecan-5-yl) nonanedioate] | – | – | equivalent or higher | did not cause changes in body weight | – | – | –
7 | CCCCCCCC/C=C\CCCCCCCC(=O)Oc1ccc(CC(=O)OCCC2CCN(CCSSCCN3CCC(CCOC(=O)Cc4ccc(OC(=O)CCCCCCCC(=O)OC(CCCCCC)CCCCCCCC)cc4)CC3)CC2)cc1 (stereo not drawn) [Lipid 8, 1-(4-(2-(2-(1-(2-((2-(4-(2-(2-(4-(oleoyloxy)phenyl)acetoxy)ethyl)piperidin-1-yl)ethyl)disulfaneyl)ethyl)piperidin-4-yl)ethoxy)-2-oxoethyl)phenyl) 9-(pentadecan-7-yl) nonanedioate] | – | – | equivalent or higher | did not cause changes in body weight | – | – | –
8 | CCCCCCCCCOC(=O)CCCCCCCC(=O)Oc1ccc(CC(=O)OCCC2CCN(CCSSCCN3CCC(CCOC(=O)Cc4ccc(OC(=O)CCCCCCCC(=O)OC(CC)CCCCCCCC)cc4)CC3)CC2)cc1 (stereo not drawn) [Lipid 9, 1-nonyl 9-(4-(2-oxo-2-(2-(1-(2-((2-(4-(2-(2-(4-((9-oxo-9-(undecan-3-yloxy)nonanoyl)oxy)phenyl)acetoxy)ethyl)piperidin-1-yl)ethyl)disulfaneyl)ethyl)piperidin-4-yl)ethoxy)ethyl)phenyl) nonanedioate] | – | – | – | – | equivalent or higher | did not cause significant changes in body weight | –
9 | CCCCCCCCCOC(=O)CCCCCCCC(=O)Oc1ccc(CC(=O)OCCC2CCN(CCSSCCN3CCC(CCOC(=O)Cc4ccc(OC(=O)CCCCCCCC(=O)OC(CCCC)CCCCCCCC)cc4)CC3)CC2)cc1 (stereo not drawn) [Lipid 10, 1-nonyl 9-(4-(2-oxo-2-(2-(1-(2-((2-(4-(2-(2-(4-((9-oxo-9-(tridecan-5-yloxy)nonanoyl)oxy)phenyl)acetoxy)ethyl)piperidin-1-yl)ethyl)disulfaneyl)ethyl)piperidin-4-yl)ethoxy)ethyl)phenyl) nonanedioate] | – | – | – | – | equivalent or higher | did not cause significant changes in body weight | –
10 | CCCCCCCCCOC(=O)CCCCCCCC(=O)Oc1ccc(CC(=O)OCCC2CCN(CCSSCCN3CCC(CCOC(=O)Cc4ccc(OC(=O)CCCCCCCC(=O)OC(CCCCCC)CCCCCCCC)cc4)CC3)CC2)cc1 (stereo not drawn) [Lipid 11, 1-nonyl 9-(4-(2-oxo-2-(2-(1-(2-((2-(4-(2-(2-(4-((9-oxo-9-(pentadecan-7-yloxy)nonanoyl)oxy)phenyl)acetoxy)ethyl)piperidin-1-yl)ethyl)disulfaneyl)ethyl)piperidin-4-yl)ethoxy)ethyl)phenyl) nonanedioate] | – | – | – | – | equivalent or higher | did not cause significant changes in body weight | –
